Values quoted from earlier work as cited in patent US20130005740A1, “PROCESS FOR PREPARATION OF OVER-THE-COUNTER GELATIN OR PECTIN-BASED DRUG DELIVERY” (7267207 CANADA LIMITED CORPORATION, priority 2009, published 2013).

Settings: unlike aspirin

For CC(C)Cc1ccc(C(C)C(=O)O)cc1 (stereo not shown) [ibuprofen], the stability in solution is given as “stable in solution”.
